Results from patent US20160257749A1, “ANTI-TIM3 ANTIBODIES AND METHODS OF USE” (Hoffmann-La Roche, Inc., priority 2014, published 2016).

Key:
RNA-polymerase II = RNA-polymerase II (Homo sapiens, UniProt P24928+P30876); conditions: read-out: KD of the complex between amanitin and RNA-polymerase II; cited from earlier work
recTIM-3 CHO cells = experiment: Cytotoxic activity, sandwich format with anti-mouse Fc Fab-PE24, CellTiter-Glo; format: cell-based; conditions: Cricetulus griseus, 72 h, full length mouse Fcγ versions + mouse Fcγ specific Fab-PE 24 (10 μg/ml), 3 days at 37° C.
Excerpt: (§1) Rel. Inhibition [%]=(1−(Esample−Enegative control)/(Epositive control−Enegative control))*100

Pfeiffer cells [1] = experiment: Cytotoxic activity, human IgG1 format with anti-human Fc Fab-PE24, CellTiter-Glo; format: cell-based; conditions: full length human IgG1 format + human Fcγ specific Fab-PE 24 (10 μg/ml), 5 days at 37° C.
Excerpt: as §1

RPMI-8226 cells [2] = experiment: as above; format: cell-based; conditions: full length human IgG1 format + human Fcγ specific Fab-PE 24 (10 μg/ml), 5 days at 37° C.
Excerpt: as §1

CMK = experiment: Cytotoxic activity of Fab-PE24 constructs, CellTiter-Glo; format: cell-based, human; conditions: 4 days at 37° C.
Protocol: (§2) Treatment ranges from 50 μg/ml to 8 μg/ml in triplicate. Cycloheximide was used as positive control.

Karpas-299 = experiment: as above; format: cell-based, human; conditions: 4 days at 37° C.
Protocol: as §2

MOLM-13 = experiment: as above; format: cell-based, human; conditions: 4 days at 37° C.
Protocol: as §2

RPMI-8226 = experiment: as above; format: cell-based, human; conditions: 4 days at 37° C.
Protocol: as §2

TF-1 = experiment: as above; format: cell-based, human; conditions: 4 days at 37° C.
Protocol: as §2

primary CD34+ AML cells = experiment: Cytotoxic activity of Fab-PE24 constructs on primary AML cells from relapsed/refractory patients; format: cell-based, human; conditions: 3 days at 37° C.
Excerpt: CD34+ cells from peripheral blood of relapsed/refractory patients were obtained from AllCells, LLC, Alameda, Calif.
Cycloheximide was used as positive control.

Pfeiffer cells [3] = experiment: Cytotoxic activity of sortase coupled Fab-PE24 constructs, CellTiter-Glo; format: cell-based, human
Protocol: as §2

RPMI-8226 cells [4] = experiment: as above; format: cell-based, human
Protocol: as §2

Pfeiffer cells [5] = experiment: Cytotoxic activity of Fab-PE24 construct vs total IgG-Amatoxin conjugate, CellTiter-Glo; format: cell-based, human
Protocol: as §2

| Compound | Kd (RNA-polymerase II) [nM] | IC50 (recTIM-3 CHO cells) [nM] | Pfeiffer cells Max. killing (Pfeiffer cells [1]) | RPMI-8226 cells Max. killing (RPMI-8226 cells [2]) | CMK Max. killing (CMK) [%] | Karpas-299 Max. killing (Karpas-299) [%] | MOLM-13 Max. killing (MOLM-13) [%] | RPMI-8226 Max. killing (RPMI-8226) [%] | TF-1 Max. killing (TF-1) [%] | D1; AML CD34+ PB0136 cells Max. killing (primary CD34+ AML cells) | D2; AML CD34+ PB0142 cells Max. killing (primary CD34+ AML cells) | D3; AML CD34+ PB0135 cells Max. killing (primary CD34+ AML cells) | D4; AML CD34+ PB0193 cells Max. killing (primary CD34+ AML cells) | Pfeiffer cells Max. killing (Pfeiffer cells [3]) | RPMI-8226 cells Max. killing (RPMI-8226 cells [4]) | Pfeiffer cells Max. killing (Pfeiffer cells [5]) |
| --- | --- | --- | --- | --- | --- | --- | --- | --- | --- | --- | --- | --- | --- | --- | --- | --- |
| amanitin | 3 |  |  |  |  |  |  |  |  |  |  |  |  |  |  |  |
| C[C@@H]1C[C@@H]([C@H](O)CC2CC(=O)NC(=O)C2)C(=O)[C@@H](C)C1 [Cycloheximide, reference compound] |  | 135 | 100 [%] | 100 [%] | 100 | 100 | 100 | 100 | 100 | 100 [%] | 100 [%] | 100 [%] | 100 [%] | 100 [%] | 100 [%] | 100 [%] |
